Results on 45 compounds are retold here after US8992977B2, “Multi-day delivery of biologically active substances” (Samos Pharmaceuticals, LLC, priority 2007, dated 2015).

The conditions of data set [1]: cited from earlier work.
For data set [2] the following is noted: cited from earlier work; for t1/2: carrier drug, as repeated in the examples.
For data set [3] the following is noted: cited from earlier work; for short half life from triacylglycerols (TAG) / following half life from triacylglycerols (TAG): bi-exponential pattern; for short half life from triacylglycerols (TAG): first phase; for following half life from triacylglycerols (TAG): second phase.
For data set [4] the following is noted: cited from earlier work. This is another data set of the same source.
The conditions of data set [5]: cited from earlier work. The source holds these as a separate data set.
Data set [6] can be described thus: Hydrolysis of ethinyl estradiol (EE) from conjugate of Example 16. Format: physicochemical. Particulars: for Ethinyl Estradiol Released (%): 9:4 ethanol/0.05 M phosphate buffer pH 7.4, 37° C. The method, then: Estradiol conjugate (33.5 mg, 0.039 mmol), prepared from Conjugate 1 as described in Example 16, was dissolved in 58 mL of a 9:4 ethanol/0.05 M aqueous phosphate buffer (pH 7.4) mixture, and the solution was shaken in a 37° C. incubator for 9 days. Six 8 mL aliquots were collected at 1-, 2-, 3-, 5-, 7-, and 9-day intervals. Estradiol release was quantified by adding 33 μL of a 0.09 M solution of butylated hydroxytoluene (BHT) in deuterochloroform as an internal standard, then comparing integrals of 1H NMR signals corresponding to the steroid and the internal standard.

[7] abbreviates: Table 2, acid moiety, 70% acetone, temperature 24.7.
[8] abbreviates: Table 2, acid moiety, water, temperature 24.7.
Setting [9] is: The Pharmacological Basis of Therapeutics 10th ed., Physicians Desk Reference 58th Ed.
Setting [10] is: carotenoids, J. of Nutrition 2001, 131, 2096.
The mark [11] stands for this setting: Table 1, alcohol moiety, 70% acetone, temperature 24.7.
The mark [12] stands for this setting: Table 1, alcohol moiety, 60% acetone, temperature 25.
[13] abbreviates: Physicians Desk Reference p. 3372, 57 ed., 2003.
The mark [14] stands for this setting: Table 1, alcohol moiety, 60% acetone, temperature 1.

Usually CL/F stands for clearance divided by bioavailability, as obtained after extravascular dosing.

Like-named read-outs stand apart in the source and are kept apart here.

Take `CCCC(=O)OCC` [nC3H7COOC2H5]: the kOH in data set [1] (setting [7]) is 0.088 M⁻¹ s⁻¹.

Regarding `CCOC(=O)C(CC)CC` [(C2H5)2CHCOOC2H5], the kOH in data set [1] (setting [7]) is 0.000083 M⁻¹ s⁻¹.

Regarding `CC(=O)OC[C@H]1O[C@@H]([S-])[C@H](OC(C)=O)[C@@H](OC(C)=O)[C@@H]1OC(C)=O.CCP(CC)CC.[Au+]` [Auranofin], the half life in data set [2] (in vivo) is 408 to 600 h.

For Infliximab, the half life in data set [2] (in vivo) was 228 h.

With `CCOC(=O)C[N+](C)(C)C` [(CH3)3N^+CH2COOC2H5], the kOH in data set [1] (setting [8]) was 98.0 M⁻¹ s⁻¹.

Consider `CCCCC/C=C\C/C=C\CCCCCCCC(=O)O` [linoleic acid], for which, in data set [3] (essential fatty acids as drug carriers), the t1/2 is 24 h.

`CCOC(=O)CSC` [CH3SCH2COOC2H5]: in data set [1] (setting [8]), the kOH was 0.92 M⁻¹ s⁻¹.

As for `CCOC(=O)C(C)(C)C` [(CH3)3CCOOC2H5], the kOH in data set [1] (setting [7]) was 0.00022 M⁻¹ s⁻¹.

With `CNCCC(Oc1ccc(C(F)(F)F)cc1)c1ccccc1` (centres unmarked) [Fluoxetine], in data set [2] (setting [9]), the half life is 53 h. Moreover, the t1/2 in data set [2] is given as 53 h.

With `CC(C)=CCC/C(C)=C/C=C/C(C)=C/C=C/C(C)=C/C=C/C=C(C)/C=C/C=C(C)/C=C/C=C(\C)CCC=C(C)C` [lycopene], the half life in data set [4] (setting [10]) is 624 h.

As to `CCOC(=O)C[S+](C)[O-]` (centres unmarked) [CH3SOCH2COOC2H5], the kOH in data set [1] (setting [8]) was 4.20 M⁻¹ s⁻¹.

For `CN(C)CCOc1ccc(/C(=C(/CCCl)c2ccccc2)c2ccccc2)cc1` [Toremifene], the half life in data set [2] (setting [9]) was 148 h.

`COc1ccc2cc(CCC(C)=O)ccc2c1` [Nabumetone]: the half life in data set [2] (setting [9]) was 23 h.

Take `CC(C)=CCC\C(C)=C/C=C/C(C)=C/C=C/C(C)=C/C=C/C=C(C)/C=C/C=C(C)/C=C/C=C(\C)CCC=C(C)C` [5-Z lycopene]: the half life in data set [4] (in vivo) is 220 h.

Turning to `CCN(CCO)CCCC(C)Nc1ccnc2cc(Cl)ccc12` (centres unmarked) [Hydroxychloroquine], the half life in data set [2] (setting [9]) was 1220 h.

As for `CC(=O)OC(C)(C)C` [CH3COOC(CH3)3], in data set [1] (setting [11]), the kOH was 0.00027 M⁻¹ s⁻¹.

On to `CNCCC=C1c2ccccc2CCc2ccccc21` [Nortriptyline], for which, in data set [2] (setting [9]), the half life was 31 h.

In the case of `CC1=C(/C=C/C(C)=C/C=C/C(C)=C/C=C/C=C(C)/C=C/C=C(C)/C=C/C2=C(C)CCCC2(C)C)C(C)(C)CCC1` [beta carotene], in data set [4] (setting [10]), the half life is 888 h.

On to `C#C[C@]1(O)CC[C@H]2[C@@H]3CCC4=CC(=O)CC[C@@H]4[C@H]3CC[C@@]21CC` [levonorgestrel], for which the plasma concentrations result in data set [5] (ovulation suppression use) is listed as “about 1 microgram per ml”.

As to `CO[C@H]1C[C@@H]2CC[C@@H](C)[C@@](O)(O2)C(=O)C(=O)N2CCCC[C@H]2C(=O)O[C@H]([C@H](C)C[C@@H]2CC[C@@H](O)[C@H](OC)C2)CC(=O)[C@H](C)/C=C(\C)[C@@H](O)[C@@H](OC)C(=O)[C@H](C)C[C@H](C)/C=C/C=C/C=C/1C` [Sirolimus], the half life in data set [2] (setting [9]) was 62 h. For the same compound, the t1/2 in data set [2] is 62 h.

Regarding `CC1=C(/C=C/C(C)=C/C=C/C(C)=C/C=C/C=C(C)/C=C/C=C(C)/C=C/C2=C(C)C[C@@H](O)CC2(C)C)C(C)(C)CCC1` [beta cryptoxanthin], the half life in data set [4] (setting [10]) was 936 h.

For `CCOC(=O)CN` [H3N^+CH2COOC2H5], the kOH in data set [1] (setting [8]) was 60.5 M⁻¹ s⁻¹.

Consider `CCC1(c2ccccc2)C(=O)NC(=O)NC1=O` [Phenobarbital], for which the half life in data set [2] (setting [9]) is 99 h.

As to `CC(=O)OCc1ccc([N+](=O)[O-])cc1`, the kOH in data set [1] (setting [12]) was 0.269 M⁻¹ s⁻¹.

Turning to `CC1=CCCC(C)(C)[C@H]1/C=C/C(C)=C/C=C/C(C)=C/C=C/C=C(C)/C=C/C=C(C)/C=C/C1=C(C)CCCC1(C)C` [alpha carotene], the half life in data set [4] (setting [10]) is 1080 h.

As for `CCCOC(C)=O` [CH3COO(CH2)2CH3], in data set [1] (setting [11]), the kOH is 0.027 M⁻¹ s⁻¹.

In the case of `CC(=O)Oc1ccccc1` [CH3COOC6H5], the kOH in data set [1] (setting [12]) was 0.537 M⁻¹ s⁻¹.

As to `CNCCCC1c2ccccc2C=Cc2ccccc21` [Protriptyline], the half life in data set [2] (setting [9]) was 78 h. The t1/2 in data set [2] is 76 h.

On to `C#C[C@]1(O)CC[C@H]2[C@@H]3CCc4cc(O)ccc4[C@H]3CC[C@@]21C` [ethinyl estradiol], for which, in data set [5] (setting [13]), the CL/F was 8.1 mL/min/kg and the half life is 18.7 h.

For the compound `CCOC(C)=O` [CH3COOC2H5], the kOH in data set [1] (setting [11]) and in data set [1] (setting [7]) was 0.047 M⁻¹ s⁻¹ in each case.

For the compound `COC(C)=O` [CH3COOCH3], the kOH in data set [1] (setting [11]) was 0.108 M⁻¹ s⁻¹.

Consider `CC/C=C\C/C=C\C/C=C\C/C=C\C/C=C\CCCC(=O)O` [EPA, eicosapentaenoic acid], for which the “mean half life in cholesteryl esters (CE)” value in data set [3] (Br. J. Nutr. 1999) was 78.5 h. Further, in data set [3], the “short half life from triacylglycerols (TAG)” value is “less than a day” and the “following half life from triacylglycerols (TAG)” value is on record as “several days”.

For the compound `CC(=O)OC(C)C` [CH3COOCH(CH3)2], in data set [1] (setting [11]), the kOH was 0.007 M⁻¹ s⁻¹.

Take Gold sodium thiomalate: in data set [2] (setting [9]), the half life is 600 h.

In the case of `CC(C)=CCC/C(C)=C/C=C/C(C)=C/C=C/C(C)=C/C=C/C=C(C)/C=C/C=C(C)/C=C/C=C(\C)CCC=C(C)C` [E lycopene], the half life in data set [4] (in vivo) was 120 h.

On to Ivermectin, for which, in data set [2] (setting [9]), the half life is 57 h.

Turning to `C#C[C@]1(O)CC[C@H]2[C@@H]3CCc4cc(OC(=O)CCC(=O)OC(c5cc(C(F)(F)F)nc6c(C(F)(F)F)cccc56)C5CCCCN5)ccc4[C@H]3CC[C@@]21C` (some centres unmarked) [Conjugate of Example 16], the “rate of hydrolysis compared with Conjugate 1” value in data set [6] is recorded as “slower than that of Conjugate 1”. The “Ethinyl Estradiol Released (%)” value in data set [6] (Day 1) was determined as 30%; in data set [6] (Day 2) it was 50%; in data set [6] (Day 3) it was 63%; in data set [6] (Day 5) it was 77%; in data set [6] (Day 7) it was 88%; in data set [6] (Day 9), 98%.

With `CC(=O)Oc1ccc([N+](=O)[O-])cc1`, the kOH in data set [1] (setting [14]) is 2.2 M⁻¹ s⁻¹.

For `CC/C=C\C/C=C\C/C=C\C/C=C\C/C=C\C/C=C\CCC(=O)O` [DHA, docosahexaenoic acid], in data set [3], the “short half life from triacylglycerols (TAG)” value is on record as “less than a day” and the “following half life from triacylglycerols (TAG)” value is “several days”.

Consider `CC(=O)Oc1cccc(C)c1`, for which the kOH in data set [1] (setting [14]) is 0.09 M⁻¹ s⁻¹.

As for `CCOC(=O)CCl` [ClCH2COOC2H5], in data set [1] (Table 2, acid moiety, Water, μ = 0.2, temperature 24.7), the kOH is 33.2 M⁻¹ s⁻¹.

As to `CC1=C[C@H](O)CC(C)(C)[C@H]1/C=C/C(C)=C/C=C/C(C)=C/C=C/C=C(C)/C=C/C=C(C)/C=C/C1=C(C)C[C@@H](O)CC1(C)C` [lutein], in data set [4] (setting [10]), the half life is 1820 h.

For `OC(c1cc(C(F)(F)F)nc2c(C(F)(F)F)cccc12)C1CCCCN1` (centres unmarked) [Mefloquine], the half life in data set [2] (setting [9]) was 480 ± 96 h.

Turning to `CC1=C(/C=C/C(C)=C/C=C/C(C)=C/C=C/C=C(C)/C=C/C=C(C)/C=C/C2=C(C)CC(O)CC2(C)C)C(C)(C)CC(O)C1` (centres unmarked) [zeaxanthin], in data set [4] (setting [10]), the half life is 912 h.

As for `O=c1[nH]c2ccccc2n1C1CCN(CCCC(c2ccc(F)cc2)c2ccc(F)cc2)CC1` [Pimozide], in data set [2] (setting [9]), the half life was 111 h.
